Several values for one entry are separate records, joined by “and”; a condition that tells them apart may be missing. Equal values may be shown once.
How the values were obtained:
Format in all cases: physicochemical
[1] = pH controlled synthesis, free Gd versus synthesis time
Procedure: Here, Example 1A is modified by the addition of gadolinim oxide in its entirety at first and immediately after the introduction of the DOTA, and this procedure is used to produce batch A of Gd-DOTA. Batch B is produced using the following modified procedure.
• 1. Heat reactor to 95° C. • 2. Charge water with all of gadolinium oxide • 3. Stir (stir unless otherwise indicated, nominal rate 300 rpm) until the solution is clear • 4. Add sufficient DOTA to obtain a pH of 4 • 5. When pH is >5 charge sufficient DOTA to reach pH of 4 • 6. Stir until uniformly distributed in the water, and clear • 7. If pH<4, then go to step 9 • 8. Go to step 4 • 9. Divide remaining portion of DOTA into 5 parts • 10. Add 1 part of remaining DOTA • 11. Stir until uniformly distributed in the water, and clear • 12. If DOTA remains to be added go to step 10 • 13. Continue to cook for a total of 12 hours Results

[2] = Free gadolinium as a function of synthesis time, spectrometric xylenol orange; conditions: for Free Gd, titrated with meglumine to pH 7.0: after 32 hrs synthesis
Procedure: Once the reference solution is prepared, then product runs can be indexed against this standard. • 23. An improvement over earlier methods involves in-line or batch sample monitoring of metastable intermediate presence. For example, the monitoring can be by Fourier Transform Infrared Spectroscopy, High Performance Liquid Chromatography, Ultra High Performance Liquid Chromatography, or Trans-metalation reaction. The reactant can be titrated with a strong acid (0.1 M HCl) and the free Gd3+ ion quantified by the improved xylenol orange titration according to the present disclosure. The metastable intermediate will release free Gd3+ more quickly than fully complexed Gd-DOTA. The presence of multiple metastable intermediate forms can be detected by dynamic titration over the span of an hour or more, and calculating the Gd3+ ion as a function of time. • 24. In addition, the relative kinetic stability of a Gd-DOTA complex is accessed by exposing the solution to phosphate anions at physiological pH. Even chelates with very high thermodynamic stability constants will equilibrate to form some free chelate and non-chelated gadolinium. Since gadolinium phosphate is insoluble, any non-chelated gadolinium will precipitate as insoluble gadolinium phosphate, and the free Gd3+ ion can be quantified by weighing the precipitate. Verify Complex Formation • 25. Verify absence of free gadolinium using Xylenol orange • 26. If free gadolinium detected, add X DOTA, raise temperature to 95+1-2° C., stir for 1 hr and proceed to step 16 • 27. If not, proceed to step 23 Preparation of Gadoteric Acid Meglumine Solution • 28. Add 90% of the meglumine at 40-45° C. • 29. Sir 10 minutes • 30. Measure pH—in-line probe calibrated to 25° C. (USP) • 31. If pH is >7.5, discard • 32. If pH is between 7.0 and 7.5, then go to step 29 • 33. If pH<than 7.0, add 2% of the Meglumine, go to step 24 • 34. Stir for 1 hr at 40-45° C. • 35. Check solution is clear, if yes proceed to 31, if not repeat 29 Gadoteric Acid Meglumine Solution Filtration • 36. Cool the solution to 20-25° C. • 37. Filter the solution using the carbon filter • 38. Rinse the reactor with 20-25° C. water using ¼ V • 39. Pass rinse through the filter • 40. Repeat rinse steps 33 & 34 for a total of 2 rinses • 41. Place filtrate and rinses back in reactor • 42. Stir at 25-30° C. for 10 min • 43. Measure Free DOTA by HPLC • 44. If Free DOTA is 0.01-0.06% ww proceed to 42 • 45. If Free DOTA<0.01% ww, add 0.03% ww equivalent of DOTA • 46. Stir for ½ hr and go to step 38 • 47. Measure pH—in-line probe calibrated to 25° C. (USP) • 48. If pH is between 7.0 and 7.5, then go to step 45 • 49. If pH<7.0, add meglumine. Stir 10 min. Go to step 42. • 50. Stir ½ hr. • 51. Check solution is clear, if yes proceed to 47, if not repeat 45 Verify Purity • 52. Measure Purity by HPLC • 53. If individual impurity>0.05%, go to step 32 Final API Adjustments • 54. Measure Free DOTA by HPLC • 55. If Free DOTA>0.06% ww, repeat steps 32-42 • 56. If Free DOTA is 0.01-0.06% ww proceed to 55 • 57. If Free DOTA<0.01% ww, add 0.03% ww equivalent of DOTA • 58. Stir ½ hr • 59. Go to Step 49 • 60. Measure pH • 61. If pH is 7.0-7.5, then go to step 53 • 62. If pH<7.0, add Meglumine. Stir 10 min. Go to step 55 Final API Testing • 63. Perform full API testing: Gadolinium content; Meglumine Content; Assay; Water Content; Heavy Metals Free Gadolinium as a Function of Synthesis Time Using the Method of Example 1A.
Free Gadolinium was determined by using the spectrometric xylenol orange technique described in previous studies.
Free Gadolinium as a Function of Synthesis Time Using the Method of Example 1.
Free Gadolinium was determined by using the improved spectrometric xylenol orange technique described in previous studies.

[3] = Effect of solvent (ethanol) on intermediate formation and destabilization of stable complex; conditions: mixed with 10% v-v ethanol, ethanol evaporated 12 hrs
Procedure: At each time step, samples were mixed with 10% v-v ethanol. The ethanol was driven from the sample by evaporation (heating under vacuum) for 12 hrs. Free Gadolinium was determined by using the spectrometric xylenol orange technique described in previous studies.
At each time step, samples were mixed with 10% v-v ethanol. The ethanol was driven from the sample by evaporation (heating under vacuum) for 12 hrs. Free Gadolinium was determined by using the improved spectrometric xylenol orange technique described in previous studies.

[4] = Feasibility of excess DTPA, free Gd3+ by xylenol orange; conditions: stoichiometric DTPA, room temperature, 24 hours
Procedure: The metastable intermediate concentration is determined by Example 3, and associated methods described in the present application. A Gd-DOTA synthesis containing metastable intermediates is heated to 95° C. in the presence of a stoichiometric amount of DTPA sufficient to consume all the metastable intermediates. The presence of metastable intermediates can be measured as a function of time. The reaction is continued until a desired metastable intermediate content is obtained. Depending on the amount of free DOTA thus liberated, the free DOTA can be reacted with a positively charged resin, as is known in the art. Alternatively, the free DOTA may serve as a buffer against free Gd3+ formation, as is permitted in some drug formulations. Ten samples were prepared by adding stoichiometric amounts of DTPA to counter the excess Gd3+ and stored at room temperature for 24 hours. Samples were tested using the improved spectrometric xylenol orange method.

[5] = Metastable intermediates as a function of reaction time
Procedure: • 1. Heat reactor to 25-30° C. • 2. Charge water with DOTA • 3. Begin stirring (stir unless otherwise indicated, nominal rate 300 rpm) • 4. Charge 10% of the DOTA • 5. Stir until uniformly distributed in the water • 6. If all the DOTA is charged, then go to step 8 • 7. Go to step 4 • 8. Stir 10 min Preparation of Gadolinium: DOTA Complex • 9. Charge 25% by weight of the Gadolinium oxide • 10. Stir until uniformly distributed • 11. If all the Gadolinium oxide is charged then go to step 13 • 12. Go to step 9 • 13. Stir 10 min • 14. Raise temperature to 95+/−2° C. • 15. Stir 3 hrs. • 16. Check clarity • 17. If not clear continue for 1 hr, go to step 16 (this step took about 12 hours) • 18. If clear, continue 1 hr and then cool to 40-45° C. • 19. If precipitate forms, heat to 95+/−2° C. and stir for 1 hr, go to step 16 Verify Gd-Dota is Free of Metastable Intermediates • 20. A standard metastable-free Gd-DOTA reference solution is obtained by taking 5 ml of reactant obtained from steps 1-19 and diluting to a 0.2 mM Gd-DOTA solution. One measures the metastable intermediate content after synthesis for 5, 10, 15, 20, 25, 30, and 35 hours, or until the concentration of the metastable intermediate asymptotes as close to zero as possible. • 21. […] The output from a copper vapor laser tuned to 578.2 nm (Oxford Lasers, Didcot, United Kingdom) is directed through the reactant and the excitation spectrum obtained at 578.2 nm. Baseline is established by directing the laser through the quartz vessel filled with distilled water.
Stoichiometric ratios of gadolinium oxide were reacted with DOTA according to the procedure outlined in Example 1. Measurements were taken (N=1) to conserve volume. The final measurement was performed 5 times.

[6] = Feasibility of cation exchange (sodium polystyrene sulfonate), free Gd3+ by xylenol orange; conditions: stoichiometric sodium polystyrene sulfonate, room temperature, N = 5
Procedure: Feasibility of cation exchange as a method of making Gd-DOTA with low metastable intermediates
Using sodium polystyrene sulfonate, rather than the polymer described above.
Ten samples were stored at room temperature with a stoichiometric amount of sodium polystyrene sulfonate.
Samples were tested using the improved spectrometric xylenol orange method.

O=C([O-])CN1CCN(CC(=O)[O-])CCN(CC(=O)O)CCN(CC(=O)[O-])CC1.[Gd+3] [Batch A, Gd-DOTA]
Free Gd ([1]; synthesis time 4 hrs): 15,036 +/− 12.8 ppm
Free Gd ([1]; synthesis time 8 hrs): 4,947 +/− 9.9 ppm
Free Gd ([1]; synthesis time 12 hrs): 1,792 +/− 10.5 ppm

O=C([O-])CN1CCN(CC(=O)[O-])CCN(CC(=O)O)CCN(CC(=O)[O-])CC1.[Gd+3] [Example 1A, Gd-DOTA]
Free Gd, titrated with meglumine to pH 7.0 [2]: 0.77+/−0.92 ppm
Free Gd ([2]; synthesis time 4 hrs): 17,467 +/− 9.4 ppm
Free Gd ([2]; synthesis time 8 hrs): 3,448 +/− 8.9 ppm
Free Gd ([2]; synthesis time 12 hrs): 803 ppm and 803 +/− 8.1 ppm
Free Gd ([2]; synthesis time 16 hrs): 509 +/− 4.2 ppm
Free Gd ([2]; synthesis time 20 hrs): 63.6 +/− 9.7 ppm
Free Gd ([2]; synthesis time 24 hrs): 31.0 +/− 2.1 ppm
Free Gd ([2]; synthesis time 28 hrs): 1.2 +/− 0.72 ppm
Free Gd ([2]; synthesis time 32 hrs): 0.25 +/− 0.67 ppm
Free Gd ([3]; synthesis time 4 hrs): 71,830 ppm
Free Gd ([3]; synthesis time 8 hrs): 7,044 ppm
Free Gd ([3]; synthesis time 12 hrs): 2,146 ppm
Free Gd ([3]; synthesis time 16 hrs): 957 ppm
Free Gd ([3]; synthesis time 20 hrs): 401 ppm
Free Gd ([3]; synthesis time 24 hrs): 147 ppm
Free Gd ([3]; synthesis time 28 hrs): 92 ppm
Free Gd ([3]; synthesis time 32 hrs): 56 (compare to 0.77 without solvents) ppm

O=C([O-])CN1CCN(CC(=O)[O-])CCN(CC(=O)O)CCN(CC(=O)[O-])CC1.[Gd+3] [Example 1B, Gd-DOTA]
Free Gd, titrated with meglumine to pH 7.0 [2]: 0.77+/−0.92 ppm
Free Gd ([2]; synthesis time 4 hrs): 17,467 +/− 9.4 ppm
Free Gd ([2]; synthesis time 8 hrs): 3,448 +/− 8.9 ppm
Free Gd ([2]; synthesis time 12 hrs): 803 ppm and 803 +/− 8.1 ppm
Free Gd ([2]; synthesis time 16 hrs): 509 +/− 4.2 ppm
Free Gd ([2]; synthesis time 20 hrs): 63.6 +/− 9.7 ppm
Free Gd ([2]; synthesis time 24 hrs): 31.0 +/− 2.1 ppm
Free Gd ([2]; synthesis time 28 hrs): 1.2 +/− 0.72 ppm
Free Gd ([2]; synthesis time 32 hrs): 0.25 +/− 0.67 ppm
Free Gd ([3]; synthesis time 4 hrs): 71,830 ppm
Free Gd ([3]; synthesis time 8 hrs): 7,044 ppm
Free Gd ([3]; synthesis time 12 hrs): 2,146 ppm
Free Gd ([3]; synthesis time 16 hrs): 957 ppm
Free Gd ([3]; synthesis time 20 hrs): 401 ppm
Free Gd ([3]; synthesis time 24 hrs): 147 ppm
Free Gd ([3]; synthesis time 28 hrs): 92 ppm
Free Gd ([3]; synthesis time 32 hrs): 56 (compare to 0.77 without solvents) ppm

Gd-DOTA [Example 7]
Gd3+ after samples treated with DTPA, range (upper value, down to undetectable) [4]: ≤ 27.6 ppm
Gd3+ after samples treated with DTPA ([4]; N=5): 14.8+/−11.6 ppm

O=C([O-])CN1CCN(CC(=O)[O-])CCN(CC(=O)O)CCN(CC(=O)[O-])CC1.[Gd+3] [Example 5, Gd-DOTA]
Metastable Intermediates ([5]; 3 hours of reaction): 28,094 +/− 9.7 ppm
Metastable Intermediates ([5]; 8 hours of reaction): 3,853 +/− 12.4 ppm
Metastable Intermediates ([5]; 24 hours of reaction): 72 +/− 5.0 ppm
Metastable Intermediates ([5]; 32 hours of reaction): 0.8 +/− 1.3 ppm
Metastable Intermediates after titration with meglumine to pH 7.0 ([5]; after 32 hours of reaction, unit not given): 1.2 +/− 3.8

Gd-DOTA [Example 6]
Free Gd3+ after samples treated ([6]; 24 hrs): 685 +/− 9.4
Free Gd3+ after samples treated ([6]; 48 hrs): 292 +/− 15.2
Free Gd3+ after samples treated ([6]; 96 hrs): 8.9 +/− 8.5

O=C([O-])CN1CCN(CC(=O)[O-])CCN(CC(=O)O)CCN(CC(=O)[O-])CC1.[Gd+3] [Batch B, Gd-DOTA]
Free Gd ([1]; synthesis time 4 hrs): 19,276 +/− 6.3 ppm
Free Gd ([1]; synthesis time 8 hrs): 2,793 +/− 7.1 ppm
Free Gd ([1]; synthesis time 12 hrs): 377 +/− 5.2 ppm
